{"source": "patent US4188378A", "about": "“Anticancer and antiviral activity of 9-β-D-arabinofuranosyl-2-fluoroadenine” (The United States of America as represented by the …, priority 1978, dated 1980)", "key": {"[1]": {"test_system": "DNA polymerase", "test": "Inhibition of DNA polymerase by the triphosphate", "assay_type": "biochemical", "conditions": "triphosphate compared with Ara-ATP", "from_the_text": "(§1) Inhibition of DNA polymerase is considered to be responsible for the biologic activity of AraA. The levels of F-AraATP attainable in leukemia L1210 cells in mice from the administration of 2-F-AraA are much higher than the level of AraATP atainable in these cells after administration of AraA. As a result of the maintenance of these levels of the inhibitor, F-AraATP, in them, the leukemia cells are effectively destroyed in animals. […] 2-F-AraA was also active against leukemia L1210 when administered by the oral route."}, "[2]": {"conditions": "background statement; cited from earlier work"}, "[3]": {"test_system": "leukemias", "conditions": "background statement; cited from earlier work"}, "[4]": {"test_system": "Leukemia L1210", "test": "Therapeutic activity against leukemia L1210 implanted i.p. in mice", "assay_type": "in vivo", "from_the_text": "as §1\n^a 10^5 L1210 ascites cells implanted i.p. on day 0.\n^b Treatments reported were selected from a range of dose levels from\nlethally toxic to apparently nontoxic.\nmore than 16% (1/6 treated mice) dying without gross evidence of\nprogressive leukemia (splenomegaly), except those treated orally, in whic\n^c i.p. = intraperitoneal; oral = drug administered directly into\n^d % ILS = % increase in life span, compared to untreated control;\nexcluding 60day survivors.\n^e Based on median day of death in dying animals only. Figures in\nparentheses based on % survivors.\n2-F-AraA was given i.p. or orally on the basis of average mouse body weight. Therapeutic activity based on observed increase in median life span of treated animals over untreated controls and on estimates of the number of viable L1210 cells present at the end of treatment is summarized in Table 2."}, "[5]": {"test_system": "adenosine deaminase", "conditions": "cited from earlier work"}}, "data": [{"smiles": "Nc1nc(F)nc2c1ncn2[C@@H]1O[C@H](COP(=O)(O)OP(=O)(O)OP(=O)(O)O)[C@@H](O)[C@@H]1O", "note": "[F-AraATP]", "values": [{"measurement": "inhibition of DNA polymerase", "setting": "[1]", "value": "as potent an inhibitor of DNA polymerase as Ara-ATP"}]}, {"smiles": "O=c1[nH]cnc2c1ncn2[C@@H]1O[C@H](CO)[C@@H](O)[C@@H]1O", "note": "[AraH, 9-β-D-arabinofuranosylhypoxanthine]", "values": [{"measurement": "antiviral activity", "setting": "[2]", "value": "some antiviral"}, {"measurement": "antileukemic activity", "setting": "[3]", "value": "no antileukemic activity"}]}, {"smiles": "Nc1ncnc2c1ncn2[C@@H]1O[C@H](CO)[C@@H](O)[C@@H]1O", "note": "[AraA, 9-β-D-arabinofuranosyladenine, reference compound]", "values": [{"measurement": "activity against leukemia L1210", "setting": "[4]; AraA under similar conditions", "value": "essentially devoid of activity"}, {"measurement": "leukemia cells at the end of treatment", "setting": "[4]; AraA, 10^5 cells at the beginning", "value": "3×10^8 cells"}, {"measurement": "therapeutic activity against L1210 leukemia", "setting": "[4]; in the absence of adenosine deaminase inhibitors", "value": "no significant therapeutic activity"}, {"measurement": "antiviral activity", "setting": "[2]", "value": "potent antiviral agent"}, {"measurement": "antileukemic activity", "setting": "[3]", "value": "little potential"}, {"measurement": "deamination of AraA in vivo to AraH", "setting": "[5]", "value": "rapid deamination"}]}]}
